Structures are written as SMILES.

This note sets out measurements from patent US4223137A, “Carbostyril derivatives and process for preparing the same” (Otsuka Pharmaceutical Co., Ltd., priority 1976, dated 1980).

The subject of series [1] is β-adrenoreceptor. Nature of the series: Persistence (duration) of inhibition of histamine-induced bronchospasm, anesthetized dogs. Format: in vivo, dog. The note with it: FIGURE, i.v. 1 μg/kg, versus Compound (2). Here is the method: The stimulating activity of the compounds of this invention on β-adrenoreceptor was determined as follows: Male hydrid adult dogs, weighing 10 to 15 kg, were anesthesized with sodium pentobartital administered intravenously at a level of 30 mg/kg of body weight. Each of the anesthesized dogs was secured on its back and a cannula was inserted into the trachea. Artificial respiration was conducted using a device according to the Konzett-Rossler method (Konzett H. & Rossler R., "Versuchsanordnug zu Untersuchungen an der Bronchial Moskolatur", Arch. Exp. Path., […], 195, 71-74, 27-40 (1940). The volume of the air which overflowed at the time of inhalation was measured through a pneumotachometer to determine the bronchial resistance and the values obtained were recorded on a polygraph. […] Sodium pentobartital was infused during the procedure at a dosage level of 4 mg/kg of body weight/hr using an automatic injector in order to inhibit spontaneous respiration and to maintain the anesthetic condition constant over the test period. The persistance time was determined by administering to a subject a test compound in such a dose that a histamine-induced bronchospasm is inhibited completely (100%), in the same manner as described above and observing the persistance of the activity of the test compound with the lapse of time.

For series [2], the system named is β-adrenoreceptor. Nature of the series: Heart rate (pulse) increase, i.v., anesthetized dogs. Format: in vivo, dog (male hybrid adult dogs). As for the experimental part:
(§1) The stimulating activity of the compounds of this invention on β-adrenoreceptor was determined as follows: Male hydrid adult dogs, weighing 10 to 15 kg, were anesthesized with sodium pentobartital administered intravenously at a level of 30 mg/kg of body weight. Each of the anesthesized dogs was secured on its back and a cannula was inserted into the trachea.
(§2) In the above procedure, histamine was employed as a bronchoconstrictor at a dosage level of 10 μg/kg of body weight, and an aqueous solution containing each of the test compounds and controls shown in Table 1 below was then administered to each of the anesthesized dogs through the femoral vein at the various dosage levels as shown in Table 1 below 1 minute before the administration of the histamine. Sodium pentobartital was infused during the procedure at a dosage level of 4 mg/kg of body weight/hr using an automatic injector in order to inhibit spontaneous respiration and to maintain the anesthetic condition constant over the test period.
(§3) ED50 values were calculated using a Dose Response curve. At the same time the pulse was measured through a transducer and the value was recorded on a polygraph.

Another series concerns β2-receptor. Nature of the series: Separation of bronchial resistance effect from heart rate effect (β2 selectivity), anesthetized dogs. The note with it: i.v. The class given is in vivo, dog (male hybrid adult dogs). As for the experimental part:
The stimulating activity of the compounds of this invention on β-adrenoreceptor was determined as follows: Male hydrid adult dogs, weighing 10 to 15 kg, were anesthesized with sodium pentobartital administered intravenously at a level of 30 mg/kg of body weight. Each of the anesthesized dogs was secured on its back and a cannula was inserted into the trachea. Artificial respiration was conducted using a device according to the Konzett-Rossler method (Konzett H. & Rossler R., "Versuchsanordnug zu Untersuchungen an der Bronchial Moskolatur", Arch. Exp. Path., Pharmack, 195, 71-74, 27-40 (1940). The volume of the air which overflowed at the time of inhalation was measured through a pneumotachometer to determine the bronchial resistance and the values obtained were recorded on a polygraph.
as §2, §3

Series [3] in a line: Acute toxicity by intravenous administration. The note with it: rat, in vivo, i.v., male rats (dd strain, 18 to 22 g), fasted 12 hours, read-out: LD50 (50% lethal dose). As for the experimental part:
Further, the acute toxicity by intravenous administration was determined with respect to the test compounds shown in Table 2 below using 5 to 6 groups each containing 10 male rats (dd strain; body weight: 18 to 22 g) which had been fasted for 12 hours prior to the test. The LD50 (50% lethal dose) results are as follows.

Series [4] concerns the target T1, β-adrenoreceptor (Canis lupus familiaris, UniProt P54833).
T1 construct: from tissue; host or cells: airways of anesthetized dogs, in vivo
Nature of the series: Inhibition of histamine-induced bronchial resistance increase (bronchospasm), i.v., Konzett-Rossler method, anesthetized dogs. Format: in vivo, dog (male hybrid adult dogs). As for the experimental part: as §1, §2, §3

T1 sequence (P54833 whole entry): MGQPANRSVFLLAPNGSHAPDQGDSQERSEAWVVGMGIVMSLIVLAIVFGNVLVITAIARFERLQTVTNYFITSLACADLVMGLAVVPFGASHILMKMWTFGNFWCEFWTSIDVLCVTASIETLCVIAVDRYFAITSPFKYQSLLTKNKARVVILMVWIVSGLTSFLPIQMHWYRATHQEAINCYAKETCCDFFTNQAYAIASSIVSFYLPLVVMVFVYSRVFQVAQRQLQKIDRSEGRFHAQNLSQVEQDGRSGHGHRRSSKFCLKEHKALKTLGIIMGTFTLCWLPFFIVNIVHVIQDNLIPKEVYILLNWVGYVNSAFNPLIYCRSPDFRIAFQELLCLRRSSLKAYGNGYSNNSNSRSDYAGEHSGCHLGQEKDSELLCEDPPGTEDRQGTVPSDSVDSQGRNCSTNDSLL

On to `CCNC(CC)C(O)c1ccc(OC(C)=O)c2[nH]c(=O)ccc12.Cl` (stereo not shown) [(4), 8-acetoxy-5-(1-hydroxy-2-ethylaminobutyl)carbostyril hydrochloride], for which the “duration of β-stimulation activity on histamine-induced bronchospasm” value in the series on β-adrenoreceptor [1] is on record as “exhibit a long-lasting β-stimulation activity on histamine-induced bronchospasm as compared with that of the comparative compound”. The “Heart Rate (HR) ED25 beats/min, Compound” value in the series on β-adrenoreceptor [2] (ED25 beats/min, pulse increase, i.v., anesthetized dogs) worked out at 3.6 µg/kg. For the same compound, the “Heart Rate (HR) Relative Potency” value with β-adrenoreceptor [2] (ED25 compared to isoproterenol as standard compound) was determined as 45.0. Besides, the “Separation Ratio HR(Relative Potency)/BR(Relative Potency)” value in the series on β2-receptor was 11.8. Further, in series [3], the LD50 came to 105000 µg/kg. For the same compound, the “Bronchial Resistance (BR) Relative Potency” value on β-adrenoreceptor [4] (ED50 compared to isoproterenol as standard compound) worked out at 3.81. Moreover, on β-adrenoreceptor [4] (dog, iv, read-out: Bronchial Resistance (BR) ED50, Compound), the 50% effective dose (ED50) was 0.61 µg/kg.

What is called LD50 is the dose at which mortality reaches 50%. The term ED50 denotes the midpoint of the dose-response relation.
